Assay results: US20210228523A1, “MODULATORS OF SESTRIN-GATOR2 INTERACTION AND USES THEREOF” (Navitor Pharmaceuticals, Inc., priority 2017, published 2021)

Assays:
[1] = system: Male Sprague Dawley rats; assay: Forced swimming test (FST); type: in vivo, rat; details: for FST time spent immobile / decrease in FST time spent immobile vs Sal / decrease in FST time spent immobile vs Veh: Example G; for decrease in FST time spent immobile vs Sal / decrease in FST time spent immobile vs Veh: p<0.05
Description: Study Design. Twenty (20) male rats weighing between 175 and 200 g were randomized into 3 study groups (n=6-7/group), following a 5-day acclimation period. All rats were surgically implanted with bilateral IT cannulas in the PFC 2 weeks prior to dosing. […] Thirty minutes following the intrathecal infusions, either NV-5138 vehicle (Veh-NV, 0.5% methylcellulose/0.1% Tween-80) or NV-5138 (160 mg/kg) was administered by oral gavage. Each treatment group was assessed at the designated time following oral dosing in FST 24 hrs (day 1) LMA 48 hrs (day 2) and the NSFT 72 hrs (day 3 following a 20 hr period of fasting). LMA was measured to rule out overall changes in generally locomotor activity. The study design is presented in Table 11 with timeline of surgical procedures, test article administration and behavioral tests is provided in FIG. 20
Preparation of Test Articles. Rapamycin (Cell Signaling; #9904) was prepared in a solution of 10% DMSO (Veh-R) to a final concentration of 10 μM. R or Veh-R was administered bilaterally (0.005 nmol/0.5 μL per side) into the medial PFC via IT infusion 30 min prior to treatment with NV-5138 or Veh-NV by oral gavage. NV-5138 (lot #07) was prepared by dissolving in Veh (0.5% methylcellulose/0.1% Tween-80) at a concentration of 50 mg/mL. The dosing volume based on the weight of the animal (3.2 mL/kg) was administered by oral gavage to study animals in Groups 2 and 3.
Surgical Procedure and Administration of Rapamycin. Rats were steriotactically implanted with a guide cannula (22GA) into the medial PFC (coordinates from bregma: +3.2 AP, ±1.0 ML, -3.5 DV from dura). Surgical procedures were carried out under the anesthesia of Nembutal (i.p. 55 mg/kg). Postoperative care consisted in peri-surgical administration of carprofen (5 mg/kg) and topical triple antibiotic. After a 2-week recovery period, R (0.01 nmol in 1 μL for PFC infusion) or Veh-R was delivered at the rate of 0.25 μL/min with an injection cannula (26GA) protruding 0.5 mm beyond the guide cannula 30 min before oral administration of NV-5138 or Veh-NV.
Study Design. Forty-eight (48) male rats weighing between 175 and 200 g were randomized into 6 study groups (n=8/group), following a 5-day acclimation period. A single dose of all test articles was administered on day 0 and the behavioral tests were performed 3, 7 and 10 days later. Groups 1 and 2 were dosed on day 0 with NV-5138 (160 mg/kg by oral gavage) and Ket (10 mg/kg by i.p. injection), respectively and subjected to a FST on day 3. The rats in Group 3 and 4 received a single dose of the NV-5138 vehicle (Veh) or NV-5138 (160 mg/kg), respectively, by oral gavage on day 0. The rats in Group 5 and 6 received a single dose of the Ket vehicle (Sal) or Ket (10 mg/kg), respectively, by i.p. injection on day 0. The rats in groups 3-6 were subjected to a FST on day 7 and a NSFT on day 10. All rats in groups 3-6 were fasted the night before for 20 hours the NSFT.
Study Design. Twenty-four (24) male Sprague Dawley rats weighing between 175 and 200 g were randomized into 4 study groups (n=6/group), following a 5-day acclimation period. On study day minus 1 rats were subjected to a pre-swim. Beginning on study day 0, rats in Groups 2 received a dose of Ket (10 mg/kg) on alternate days (day 0, 2, 4, and 6) each by i.p. injection. The rats in Groups 1 received a daily dose of Veh by oral gavage for 7 days (days 0 to 6). The rats in Groups 3 and 4 received a daily dose of NV-5138 (40 or 80 mg/kg) for 7 days (days 0 to 6) each by oral gavage. All rats were subjected to the FST on day 7, 24 hrs after last dosing. On day 8, 48 hrs after last dosing, the LMA of all rats was measured in an open field. Rats were then fasted for 20 hrs and subjected to the NSFT on day 9 (72 hrs post-last dose).
Preparation of Test Articles. Ket (Sigma, cat #K1884) was dissolved in Sal at a concentration of 10 mg/mL. Injection volumes (i.p) of 1 mL/kg of Ket were administered to Group 2. […]

[2] = system: Male Sprague Dawley rats; assay: Female Urine Sniffing Test (FUST); type: in vivo, rat; details: Example A, 24 hrs post-dose; for time spent sniffing female urine (FUST): mean±SEM, n=8
Description: Behavioral Analysis Using the Female Urine Sniffing Test (FUST): The FUST was conducted according to published procedures (Malkesman, O. et al, Biol Psychiatry 67(9): 864-71 (2010)), 24 hr post-dosing. Briefly, rats were habituated for 60 min to a cotton swab dipped in tap water in their home cage. Next, rats were exposed to a 2nd cotton swab dipped in tap water and 45 min later they were exposed to a 3rd cotton swab infused with fresh rat urine from 11 to 14-week-old female rats in estrus. The total time (s) spent sniffing the cotton-tipped applicator was quantitated over 5 min for each animal.
Study Design. Thirty-two (32) male Sprague Dawley Male rats weighing between 175 and 200 g were randomized into 4 study groups (n=8/treatment group), following a 5-day acclimation period. On study day 0, rats received a single dose of either saline (Sal) or ketamine (Ket) in Groups 1 and 2, respectively, by intraperitoneal injection (i.p.). The rats in Group 3 and 4 received a single dose of the NV-5138 vehicle (Veh, 0.5% Methylcellulose/0.1% Tween-80) or NV-5138 (160 mg/kg), respectively, by oral gavage. All rats were subjected to the FUST on day 1, 24 hrs after dosing. On day 2, 48 hrs after dosing, the LMA of all rats was measured in an open field. Rats were then fasted for 20 hrs and subjected to the NSFT, 72 hrs post-dose.
Preparation of Test Articles. Ket (Sigma, cat #K1884) was dissolved in Sal at a concentration of 10 mg/mL. A volume of 1 ml/kg of Sal or Ket was injected i.p. for Groups 1 and 2, respectively. NV-5138 (Navitor, lot #06) was prepared by dissolving in Veh (0.5% methylcellulose/0.1% Tween-80) at a concentration of 50 mg/mL. The dosing volume based on the weight of the animal (3.2 mL/kg) of Veh or NV-5138 was administered by oral gavage to study animals in Groups 3 and 4, respectively. Test articles were prepared the day of dosing.

[3] = Ket 10 mg/kg i.p. single dose, 3 days after dose
[4] = Ket 10 mg/kg i.p. single dose, 7 days after dose
[5] = NV-5138 160 mg/kg oral single dose, 3 days after dose
[6] = NV-5138 160 mg/kg oral single dose, 7 days after dose

Compound | FST time spent immobile [1, 3] | decrease in FST time spent immobile vs Sal [1, 3] | FST time spent immobile [1, 4] | decrease in FST time spent immobile vs Sal [1, 4] | time spent sniffing female urine (FUST) ([2]; Ket 10 mg/kg i.p. single dose) | increase in time spent sniffing female urine vs Sal ([2]; Ket 10 mg/kg i.p. single dose, p<0.05) | FST immobility time ([1]; Example F, Veh-R IT infusion then NV-5138 160 mg/kg oral, 24 hrs after oral dosing) | decrease in FST immobility time vs Veh-R/Veh-NV ([1]; Example F, Veh-R IT infusion then NV-5138 160 mg/kg oral, 24 hrs, p<0.0001) | FST immobility time, R/NV-5138 vs Veh-R/Veh-NV ([1]; Example F, rapamycin (R, 0.01 nmol) IT infusion into PFC 30 min before NV-5138 160 mg/kg oral, 24 hrs) | FST time spent immobile [1, 5] | decrease in FST time spent immobile vs Veh [1, 5] | FST time spent immobile [1, 6] | decrease in FST time spent immobile vs Veh [1, 6] | FST ([1]; Example I, NV-5138 80 mg/kg oral daily for 7 days, day 7, 24 hrs after last dosing) | time spent sniffing female urine (FUST) ([2]; NV-5138 160 mg/kg oral single dose) | increase in time spent sniffing female urine vs Veh ([2]; NV-5138 160 mg/kg oral single dose, p<0.01)
CNC1(c2ccccc2Cl)CCCCC1=O (stereo not shown) [Ket, ketamine, reference compound] | 95.5 ± 7.8 s | 31% | 95.0 ± 11.1 s | 31% | 36.5 ± 7.9 s | 2.1 fold | – | – | – | – | – | – | – | – | – | –
CC(C)(C[C@H](N)C(=O)O)C(F)F [NV-5138] | – | – | – | – | – | – | 144 ± 15 s | 46% | lack of significant effect on immobility time | 87.9 ± 9.0 s | 39% | 96.0 ± 11.3 s | 34% | Significant effects | 33.8 ± 2.9 s | 2.9 fold
